Patent US20240299352A1, “COMBINATION THERAPIES WITH SETD2 INHIBITORS” (Epizyme, Inc., priority 2021, published 2024)

Legend:
[1] = test system: diffuse large B-cell lymphoma (DLBCL) cell lines; test: Pre-treatment model combination study with Cpd. No. 15 (7 days pre-treatment, then combination; Table G), CellTiter-Glo viability, Loewe Volume; settings: 7 days pre-treatment with Cpd. No. 15, then combination
[2] = test system: diffuse large B-cell lymphoma (DLBCL) cell lines; test: Co-treatment combination study with Cpd. No. 15, further cell lines (Table F), CellTiter-Glo viability, Loewe Volume; type: cell-based; settings: for Combination effect with Cpd. No. 15 (Loewe Volume class), Ri1: co-treatment with Cpd. No. 15, cell line Ri1 (Cat. No. 96090512-1VL); for Combination effect with Cpd. No. 15 (Loewe Volume class), TMD8: co-treatment with Cpd. No. 15, cell line TMD8 (Cat. No. M-097); for Combination effect with Cpd. No. 15 (Loewe Volume class), WILL1: co-treatment with Cpd. No. 15, cell line WILL1 (Cat. No. ACC 651)
Description: (§1) Mantle cell lymphoma (MCL) and diffuse large B-cell lymphoma (DLBCL) cell line cultures in log-linear growth rate were treated with combinations of Cpd. No. 15 and combination partners according to a co-treatment model. […] No. 15 and the combination partner. […] Each combination was tested in quadruplicate wells. The final concentration of DMSO (vehicle) in the assay was 0.1% v/v. Fifty microliters of cell line suspension were directly dispensed to the assay-ready plates with an automated multichannel dispenser on to 384-well assay-ready plates. Assay plates were incubated for seven days unless otherwise indicated in a humidified atmosphere of 5% CO2 at 37° C. Quantification of the effect of single agents or combinations on cell viability was performed through measurement of cellular adenosine triphosphate (ATP) using a CellTiter-Glo® (Promega, Madison, WI) Luminescent Cell Viability Assay. Luminescence was detected using a SpectraMax M5 microplate reader (Molecular Devices, Sunnyvale, CA). Concentration response plots were generated in GraphPad Prism version 7.0 for Windows, GraphPad Software, (La Jolla, California) and curves fitted to a four-parameter logistic model with variable slope. Percent of inhibition was calculated at each treatment concentration.

TOLEDO = test: Co-treatment combination study with Cpd. No. 15, CellTiter-Glo viability, Loewe Volume; type: cell-based; settings: in combination with Cpd. No. 15, seven days, DLBCL cell line TOLEDO
Description: as §1

SUDHL2 = test: as above; type: cell-based; settings: in combination with Cpd. No. 15, seven days, DLBCL cell line SUDHL2
Description: as §1

Pfeiffer = test: as above; type: cell-based; settings: in combination with Cpd. No. 15, seven days, DLBCL cell line Pfeiffer
Description: as §1

SUDHL5 = test: as above; type: cell-based; settings: in combination with Cpd. No. 15, seven days, DLBCL cell line SUDHL5
Description: as §1

DOHH2 = test: as above; type: cell-based; settings: in combination with Cpd. No. 15, seven days, DLBCL cell line DOHH2
Description: as §1

DB = test: as above; type: cell-based; settings: in combination with Cpd. No. 15, seven days, DLBCL cell line DB
Description: as §1

SUDHL8 = test: as above; type: cell-based; settings: in combination with Cpd. No. 15, seven days, DLBCL cell line SUDHL8
Description: as §1

WSUNHL = test: as above; type: cell-based; settings: in combination with Cpd. No. 15, seven days, DLBCL cell line WSUNHL
Description: as §1

SUDHL10 = test: as above; type: cell-based; settings: in combination with Cpd. No. 15; 5-Day Cotreatment; DLBCL cell line SUDHL10
Description: as §1

KARPAS422 = test: as above; type: cell-based; settings: in combination with Cpd. No. 15, seven days, DLBCL cell line KARPAS422
Description: as §1

HT = test: as above; type: cell-based; settings: in combination with Cpd. No. 15, seven days, DLBCL cell line HT
Description: as §1

WILL2 = test: as above; type: cell-based; settings: in combination with Cpd. No. 15, seven days, DLBCL cell line WILL2
Description: as §1

WSUDLCL2 = test: as above; type: cell-based; settings: in combination with Cpd. No. 15, seven days, DLBCL cell line WSUDLCL2
Description: as §1

RL = test: as above; type: cell-based; settings: in combination with Cpd. No. 15; 6-Day Cotreatment; DLBCL cell line RL
Description: as §1

SUDHL6 = test: as above; type: cell-based; settings: in combination with Cpd. No. 15, seven days, DLBCL cell line SUDHL6
Description: as §1

SUDHL4 = test: as above; type: cell-based; settings: in combination with Cpd. No. 15, seven days, DLBCL cell line SUDHL4
Description: as §1

Z138 = test: as above; type: cell-based; settings: in combination with Cpd. No. 15, seven days, mantle cell lymphoma cell line Z138 (CRL-3001)
Description: as §1

REC1 = test: as above; type: cell-based; settings: in combination with Cpd. No. 15, seven days, mantle cell lymphoma cell line REC1 (CRL-3004)
Description: as §1

MAVER1 = test: as above; type: cell-based; settings: in combination with Cpd. No. 15, seven days, mantle cell lymphoma cell line MAVER1 (CRL-3008)
Description: as §1

JVM2 = test: as above; type: cell-based; settings: in combination with Cpd. No. 15, seven days, mantle cell lymphoma cell line JVM2 (CRL-3002)
Description: as §1

MINO = test: as above; type: cell-based; settings: in combination with Cpd. No. 15, seven days, mantle cell lymphoma cell line MINO (CRL-3000)
Description: as §1

JEKO1 = test: as above; type: cell-based; settings: in combination with Cpd. No. 15, seven days, mantle cell lymphoma cell line JEKO1 (CRL-3006)
Description: as §1

GRANTA519 = test: as above; type: cell-based; settings: in combination with Cpd. No. 15, seven days, mantle cell lymphoma cell line GRANTA519 (ACC 342)
Description: as §1

Molecule | Combination effect with Cpd. No. 15 (Loewe Volume class), Ri1 [2] | Combination effect with Cpd. No. 15 (Loewe Volume class), TMD8 [2] | Combination effect with Cpd. No. 15 (Loewe Volume class), WILL1 [2] | Combination effect (Loewe Volume) TOLEDO (TOLEDO) | Combination effect (Loewe Volume) SUDHL2 (SUDHL2) | Combination effect (Loewe Volume) Pfeiffer (Pfeiffer) | Combination effect (Loewe Volume) SUDHL5 (SUDHL5) | Combination effect (Loewe Volume) DOHH2 (DOHH2) | Combination effect (Loewe Volume) DB (DB) | Combination effect (Loewe Volume) SUDHL8 (SUDHL8) | Combination effect (Loewe Volume) WSUNHL (WSUNHL) | Combination effect (Loewe Volume) SUDHL10 (SUDHL10) | Combination effect (Loewe Volume) KARPAS422 (KARPAS422) | Combination effect (Loewe Volume) HT (HT) | Combination effect (Loewe Volume) WILL2 (WILL2) | Combination effect (Loewe Volume) SUDHL6 (SUDHL6) | also measured
N.N.O=C([O-])C1(C(=O)[O-])CCC1.[Pt+2] [Carboplatin, carboplatin] | Additivity (between 1 and −1: additivity) | Additivity (between 1 and −1: additivity) | Additivity (between 1 and −1: additivity) | Additivity (between 1 and −1: additivity) | Additivity (between 1 and −1: additivity) | Additivity (between 1 and −1: additivity) | Additivity (between 1 and −1: additivity) | Additivity (between 1 and −1: additivity) | Additivity (between 1 and −1: additivity) | Synergy (VLoewe>1: synergy) | Synergy (VLoewe>1: synergy) | Additivity (between 1 and −1: additivity) | Additivity (between 1 and −1: additivity) | Additivity (between 1 and −1: additivity) | Additivity (between 1 and −1: additivity) |  | Combination effect with Cpd. No. 15 (Loewe Volume class), Farage ([1]; cell line Farage (Cat. No. CRL-2630)): Additivity (between 1 and −1: additivity); Combination effect with Cpd. No. 15 (Loewe Volume class), HT ([1]; cell line HT (Cat. No. CRL-2631)): Synergy (VLoewe>1: synergy); Combination effect with Cpd. No. 15 (Loewe Volume class), OCILY7 ([1]; cell line OCILY7 (Cat. No. ACC 688)): Additivity (between 1 and −1: additivity); Combination effect with Cpd. No. 15 (Loewe Volume class), WILL2 ([1]; cell line WILL2 (Cat. No. ACC 652)): Synergy (VLoewe>1: synergy)
CNC[C@@H](O)COc1ccc(Cl)c(-c2nc(-c3c(C)noc3C)c(C)c(N3CC4(CCN(C(=O)OC)CC4)C3)n2)c1 [EPZ-2302] | Synergy (VLoewe>1: synergy) | Synergy (VLoewe>1: synergy) | Synergy (VLoewe>1: synergy) | Synergy (VLoewe>1: synergy) | Synergy (VLoewe>1: synergy) | No Effect | Additivity (between 1 and −1: additivity) | Synergy (VLoewe>1: synergy) | No Effect | No Effect | Synergy (VLoewe>1: synergy) | No Effect | Synergy (VLoewe>1: synergy) | Synergy (VLoewe>1: synergy) | Synergy (VLoewe>1: synergy) | Synergy (VLoewe>1: synergy) | Combination effect (Loewe Volume) WSUDLCL2 (WSUDLCL2): Synergy (VLoewe>1: synergy); Combination effect (Loewe Volume) RL (RL): Synergy (VLoewe>1: synergy); Combination effect (Loewe Volume) SUDHL4 (SUDHL4): Synergy (VLoewe>1: synergy)
rituximab | Additivity (between 1 and −1: additivity) | No Effect | No Effect | Additivity (between 1 and −1: additivity) | No Effect | No Effect |  | Synergy (VLoewe>1: synergy) | No Effect | Additivity (between 1 and −1: additivity) | Additivity (between 1 and −1: additivity) | Additivity (between 1 and −1: additivity) | No Effect | Additivity (between 1 and −1: additivity) | Additivity (between 1 and −1: additivity) | Synergy (VLoewe>1: synergy) | Combination effect (Loewe Volume) Z138 (Z138): No Effect; Combination effect (Loewe Volume) REC1 (REC1): Additivity (between 1 and −1: additivity); Combination effect (Loewe Volume) MAVER1 (MAVER1): Synergy (VLoewe>1: synergy); Combination effect (Loewe Volume) JVM2 (JVM2): Additivity (between 1 and −1: additivity); Combination effect (Loewe Volume) MINO (MINO): No Effect; Combination effect (Loewe Volume) JEKO1 (JEKO1): Synergy (VLoewe>1: synergy); Combination effect (Loewe Volume) GRANTA519 (GRANTA519): Additivity (between 1 and −1: additivity)
